# Reference: patent publication US4068074A, “Cephalosporin derivatives having at the 3-position of the cephem ring a heterocyclic thiomethyl group with a carboxy or sulfo group and at the 7-position of the cephem ring an α-heterocylic acylaminophenyl-acetamide group” (priority 1974, dated 1978)
# Where two headings read alike, the source gives them in different places.
# Experiments:
# Format in all cases: cell-based
# Staphylococcus Onuma = experiment: MIC against bacteria (Table I), strain (18)
# Description: (§1) Now, for illustrating the excellent pharmacological effects of the compounds of this invention, the values of MIC (γ/ml.) of the compounds against various bacteria are shown in Table 1, in which the compounds of this invention used are shown by example numbers.
# (18) Staphylococcus Onuma
# Proteus vulgaris OXK US = experiment: MIC against bacteria (Table I), strain (1); details: (1) Proteus vulgaris OXK US; read-out: MIC
# Description: as §1
# (1) Proteus vulgaris OXK US
# [1] = test system: Staphylococcus aureus 209P; experiment: MIC against bacteria (Table I), strain (16)
# Description: as §1
# (16) Staphylococcus aureus 209P
# [2] = test system: Pseudomonas aeruginosa ATCC 8689; experiment: MIC against bacteria (Table I), strain (4); details: ATCC8689
# Description: as §1
# (4) Pseudomonas aeruginosa ATCC 8689
# Salmonella typhi H901 W = experiment: MIC against bacteria (Table I), strain (9); details: Salmonella enterica, TYPHI
# Description: as §1
# (9) Salmonella typhi H901 W
# [3] = test system: Klebsiella pneumoniae ATCC 10031; experiment: MIC against bacteria (Table I), strain (8); details: ATCC10031
# Description: as §1
# (8) Klebsiella pneumoniae ATCC 10031
# [4] = test system: Pseudomonas aeruginosa 99 (Gentamycin resistant); experiment: MIC against bacteria (Table I), strain (5)
# Description: as §1
# (5) Pseudomonas aeruginosa 99 (Gentamycin resistant)
# [5] = test system: Shigella flexneri 2a 1675; experiment: MIC against bacteria (Table I), strain (11); details: 2A1675
# Description: as §1
# [6] = test system: Escherichia coli kauffmann 0-1; experiment: MIC against bacteria (Table I), strain (7); details: Escherichia coli
# Description: as §1
# (7) Escherichia coli kauffmann 0-1
# Salmonella enteritidis = experiment: MIC against bacteria (Table I), strain (10); details: Salmonella enterica
# Description: as §1
# (10) Salmonella enteritidis
# [7] = test system: Staphylococcus Shimanishi; experiment: MIC against bacteria (Table I), strain (17)
# Description: as §1
# (17) Staphylococcus Shimanishi
# [8] = test system: Proteus mirabilis IXM OM-19; experiment: MIC against bacteria (Table I), strain (3); details: IXMOM19; (3) Proteus mirabilis IXM OM-19; read-out: MIC
# Description: as §1
# (3) Proteus mirabilis IXM OM-19
# [9] = test system: Bacillus megatherium 10778; experiment: MIC against bacteria (Table I), strain (13); details: (13) Bacillus megatherium 10778; read-out: MIC
# Description: as §1
# Proteus vulgaris 0X 19US = experiment: MIC against bacteria (Table I), strain (2); details: 0X19US
# Description: as §1
# (2) Proteus vulgaris 0X 19US
# Shigella sonnei II 37148 = experiment: MIC against bacteria (Table I), strain (12); details: II37148
# Description: as §1
# [10] = test system: Bacillus subtilis ATCC 6633; experiment: MIC against bacteria (Table I), strain (14); details: ATCC6633
# Description: as §1
# (14) Bacillus subtilis ATCC 6633
# [11] = test system: Psuedomonas ovalis IMA 1002; experiment: MIC against bacteria (Table I), strain (6)
# Description: as §1
# (6) Psuedomonas ovalis IMA 1002
# [12] = test system: Micrococcus flavus ATCC 10240; experiment: MIC against bacteria (Table I), strain (15); details: ATCC10240
# Description: as §1
# (15) Micrococcus flavus ATCC 10240
# [13] = (4) Pseudomonas aeruginosa ATCC 8689, read-out: MIC
# [14] = (11) Shigella flexneri 2a 1675, read-out: MIC
# [15] = (10) Salmonella enteritidis, read-out: MIC
# [16] = (2) Proteus vulgaris 0X 19US, read-out: MIC
# [17] = (12) Shigella sonnei II 37148, read-out: MIC
# [18] = (14) Bacillus subtilis ATCC 6633, read-out: MIC
# [19] = (15) Micrococcus flavus ATCC 10240, read-out: MIC
# [20] = (18) Staphylococcus Onuma, read-out: MIC
# [21] = (16) Staphylococcus aureus 209P, read-out: MIC
# [22] = (8) Klebsiella pneumoniae ATCC 10031, read-out: MIC
# [23] = (5) Pseudomonas aeruginosa 99 (Gentamycin resistant), read-out: MIC
# [24] = (17) Staphylococcus Shimanishi, read-out: MIC
# [25] = (6) Psuedomonas ovalis IMA 1002, read-out: MIC
SMILES,MIC (Proteus vulgaris OXK US),"MIC ([1]; Staphylococcus aureus, 209P)","MIC [2, 13]",MIC (Salmonella typhi H901 W),"MIC [5, 14]",MIC [6],MIC (Salmonella enteritidis; [15]),MIC [8],MIC [9],MIC (Proteus vulgaris 0X 19US; [16]),MIC (Shigella sonnei II 37148; [17]),"MIC [10, 18]","MIC [12, 19]",MIC (Staphylococcus Onuma; [20]),"MIC [1, 21]","MIC [3, 22]","MIC [4, 23]","MIC [7, 24]","MIC [11, 25]",MIC ([12]; Micrococcus flavus),also measured
"O=C(O)CCSc1nnc(SCC2=C(C(=O)O)N3C(=O)[C@@H](NC(=O)[C@H](NC(=O)c4cnccc4O)c4ccccc4)[C@H]3SC2)s1 [Example 5, 7-[D-α-(4-hydroxynicotinoylamido)-α-phenylacetamido]-3-(5-carboxyethylthio-1,3,4-thiadiazol-2-yl)-thiomethyl-Δ^3-cephem-4-carboxylic acid]",< 0.09 µg/mL,1.56 µg/mL,12.5 µg/mL,1.56 µg/mL,1.56 µg/mL,6.25 µg/mL,0.39 µg/mL,0.78 µg/mL,0.78 µg/mL,0.19 µg/mL,6.25 µg/mL,0.39 µg/mL,3.13 µg/mL,–,–,–,–,–,–,–,MIC (Staphylococcus Onuma; Staphylococcus): 6.25 µg/mL; MIC ([3]; Klebsiella pneumoniae): 6.25 µg/mL; MIC ([4]; Pseudomonas aeruginosa): 6.25 µg/mL; MIC ([7]; Staphylococcus): 6.25 µg/mL; MIC [11]: 6.25 µg/mL
O=C(O)CSc1nnc(SCC2=C(C(=O)O)N3C(=O)[C@@H](NC(=O)[C@H](NC(=O)c4csccc4=O)c4ccccc4)[C@H]3SC2)s1 [Example 10],< 0.09 µg/mL,–,25 µg/mL,1.56 µg/mL,–,6.25 µg/mL,0.19 µg/mL,0.39 µg/mL,0.39 µg/mL,< 0.09 µg/mL,–,0.19 µg/mL,3.13 µg/mL,3.13 µg/mL,0.39 µg/mL,3.13 µg/mL,50 µg/mL,3.13 µg/mL,50 µg/mL,–,MIC ([5]; Shigella flexneri): 1.56 µg/mL; MIC (Shigella sonnei II 37148; Shigella sonnei): 6.25 µg/mL
"O=C(O)C1=C(CSc2nnc(C(=O)O)s2)CS[C@@H]2[C@H](NC(=O)[C@H](NC(=O)c3cnccc3O)c3ccccc3)C(=O)N12 [Example 11, 7-[D-α-(4-hydroxynicoytinoylamido)-α-phenylacetamido]-3-(5-carboxy-1,3,4-thiadiazol-2-yl)thiomethyl-Δ^3-cephem-4-carboxylic acid]",0.39 µg/mL,–,–,0.78 µg/mL,6.25 µg/mL,25 µg/mL,0.39 µg/mL,0.56 µg/mL,0.39 µg/mL,–,25 µg/mL,0.39 µg/mL,–,–,0.39 µg/mL,3.13 µg/mL,12.5 µg/mL,3.13 µg/mL,12.5 µg/mL,6.25 µg/mL,MIC (Staphylococcus Onuma; Staphylococcus): 6.25 µg/mL; MIC ([2]; Pseudomonas aeruginosa): 25 µg/mL; MIC (Proteus vulgaris 0X 19US; Proteus vulgaris): 6.25 µg/mL
"CSc1ccc2c(=O)c(C(=O)N[C@@H](C(=O)N[C@@H]3C(=O)N4C(C(=O)O)=C(CSc5nnc(SCC(=O)O)s5)CS[C@H]34)c3ccccc3)c[nH]c2c1 [Example 12, 7-[D-α-(7-methylthio-4-quinolon-3-ylcarboxamido)-α-phenylacetamido]-3-(5-carboxymethylthio-1,3,4-thiadiazol-2yl)thiomethyl-Δ^3-cephem-4-carboxylic acid]",0.19 µg/mL,–,25 µg/mL,0.19 µg/mL,1.56 µg/mL,6.25 µg/mL,0.19 µg/mL,0.39 µg/mL,0.39 µg/mL,0.19 µg/mL,3.13 µg/mL,–,–,6.25 µg/mL,0.78 µg/mL,0.39 µg/mL,12.5 µg/mL,–,25 µg/mL,3.13 µg/mL,MIC ([7]; Staphylococcus): 3.13 µg/mL; MIC ([10]; Bacillus subtilis): 3.13 µg/mL
"Cc1nc(SCC2=C(C(=O)O)N3C(=O)[C@@H](NC(=O)[C@H](NC(=O)c4cnccc4O)c4ccccc4)[C@H]3SC2)sc1C(=O)O [Example 14, 7-[D-α-(4-hydroxynicotinoylamido)-α-phenylacetamido]-3-(4-methyl-5-carboxythiazol-2-yl)thiomethyl-Δ^3-cephem-4-carboxylic acid]",0.19 µg/mL,1.56 µg/mL,25 µg/mL,1.56 µg/mL,1.56 µg/mL,3.13 µg/mL,0.78 µg/mL,0.19 µg/mL,0.39 µg/mL,0.78 µg/mL,3.13 µg/mL,0.78 µg/mL,6.25 µg/mL,12.5 µg/mL,–,6.25 µg/mL,12.5 µg/mL,12.5 µg/mL,25 µg/mL,–,–
"O=C(O)Cn1nnnc1SCC1=C(C(=O)O)N2C(=O)[C@@H](NC(=O)[C@H](NC(=O)c3cnccc3O)c3ccccc3)[C@H]2SC1 [Example 15, 7-[D-α-(4-hydroxynicotinoylamido)-α-phenylacetamido]-3-(1-carboxymethyltetrazol-5-yl)-thiomethyl-Δ^3-cephem-4-carboxylic acid]",0.19 µg/mL,3.13 µg/mL,25 µg/mL,3.13 µg/mL,3.13 µg/mL,6.25 µg/mL,0.78 µg/mL,< 0.09 µg/mL,0.39 µg/mL,0.39 µg/mL,3.13 µg/mL,0.39 µg/mL,25 µg/mL,25 µg/mL,–,6.25 µg/mL,6.25 µg/mL,12.5 µg/mL,12.5 µg/mL,–,–
"CC(Sc1nnc(SCC2=C(C(=O)O)N3C(=O)[C@@H](NC(=O)[C@H](NC(=O)c4cnccc4O)c4ccccc4)[C@H]3SC2)s1)C(=O)O (stereo partly drawn) [Example 21, 7-[D-α-(4-hydroxynicotinoylamido)-α-phenylacetamido]-3-[5-(1-carboxyethylthio)-1,3,4-thiadiazol-2-yl]thiomethyl-Δ^3-cephem-4-carboxylic acid]",< 0.09 µg/mL,1.56 µg/mL,12.5 µg/mL,1.56 µg/mL,1.56 µg/mL,3.13 µg/mL,–,0.39 µg/mL,0.39 µg/mL,0.19 µg/mL,3.13 µg/mL,0.39 µg/mL,–,6.25 µg/mL,–,6.25 µg/mL,12.5 µg/mL,6.25 µg/mL,12.5 µg/mL,3.13 µg/mL,MIC (Salmonella enteritidis; ENTERITIDIS): 0.39 µg/mL
